Measured values as given in patent US10975070B2, “Ghrelin receptor agonist for treatment of cachexia” (RaQualia Pharma Inc., priority 2010, dated 2021).

How the values were obtained:
[1] = system: tumor-bearing mice prepared using a murine colon cancer cell line, CT26; test: Inhibitory effect on weight loss of tumor-bearing mice (CT26 colon cancer transplant); type: in vivo, BALB/c mice
Excerpt: Inhibitory Effect on Weight Loss of Tumor-Bearing Mice
Tumor-bearing mice prepared using a murine colon cancer cell line, colon 26, are known to closely reproduce the symptoms of cancer cachexia (Cancer Research, 50, 4528-4532 (1990)). In this experiment, using tumor-bearing mice prepared using a murine colon cancer cell line, CT26, that was established in the same method as that for producing the murine colon cancer cell line, colon 26, (The Journal of Immunology, 154, 4685-4692 (1995)), Compound A of the present invention was evaluated for effects on the body weights of said mice. That is, CT26 colon cancer cells (5×10^6) were subcutaneously transplanted in the flank of BALB/c mice at 7 weeks of age. The transplanted mice were divided into two groups, and once every day from the following day of the transplantation, water for injection was orally administered to the control group, whereas Compound A was orally administered at a dose of 75 mg/kg to the compound administration group. The administered volume was […]. Five and ten days after the transplantation, the tumor size (major axis and minor axis) in each mouse was measured, and the tumor volume was calculated from the following formula: (major axis)×(minor axis)^2/2. In addition, the body weight of each mouse was measured daily after the transplantation. The tumor volume 5 and 10 days after the transplantation of the CT26 murine colon cancer cells, and the body weight 10 days after the transplantation are shown in Table 1. Data are expressed as the mean±standard error.

[2] = system: rats with transplanted cancer tissue (sarcoma cells induced by methylcholanthrene); test: Inhibitory effect on weight loss of rats with transplanted cancer (methylcholanthrene-induced sarcoma); type: in vivo; conditions: once a day for 5 to 14 days from 6-7 days after transplantation, dose-dependent, result in words
Excerpt: Inhibitory Effect on Weight Loss of Rats with Transplanted Cancer
The effect of Compound A was examined using this model. Sarcoma cells induced by methylcholanthrene were subcutaneously injected into the abdomen of rats. The rats were reared in a normal environment for about eight days and in this way animals used to provide cancer were produced. An amount of 0.2 to 0.3 g of fresh cancer tissue obtained from the animals used to provide cancer was subcutaneously transplanted into the abdomen of rats under anesthesia. From 6 days to 7 days after the transplantation of the cancer, Compound A was administered once a day for 5 days to 14 days, and the body weight was daily measured.
An experiment was conducted on Compound B in the same manner as described above.

[3] = CT26 tumor-bearing BALB/c mice, 75 mg/kg orally once daily from the day after transplantation, mean ± standard error

| Structure (SMILES) | Body weight 10 days after transplantation [1, 3] | Tumor volume 5 days after transplantation [1, 3] | Tumor volume 10 days after transplantation ([1]; CT26 tumor-bearing BALB/c mice, 75 mg/kg orally once daily from the day after transplantation, mean ± standard error, 75 mg/kg) | Effect on body weight 10 days after transplantation in comparison with the control group ([1]; CT26 tumor-bearing mice, 75 mg/kg orally, critical ratio of 0.1% or lower, result in words) | Effect on tumor volume in comparison with the control group ([1]; CT26 tumor-bearing mice, 75 mg/kg orally, result in words) | Progression of the weight loss in tumor-bearing animals [2] |
| --- | --- | --- | --- | --- | --- | --- |
| CN1N=C2CCN(C(=O)[C@@H](COCc3ccccc3)NC(=O)C(C)(C)N)C[C@@]2(Cc2ccccc2)C1=O [Compound A, 2-amino-N-[2-(3a-(R)-benzyl-2-methyl-3-oxo-2,3,3a,4,6,7-hexahydro-pyrazolo[4,3-c]pyridin-5-yl)-1-(R)-benzyloxymethyl-2-oxo-ethyl]-isobutyramide] | 22.3 ± 0.2 g | 137 ± 8 mm^3 | 291±25 mm^3 | significantly increased the body weight | not capable of reducing the tumor volume | significantly inhibited the progression of the weight loss |
| CC(C)(N)C(=O)N[C@H](COCc1ccc(F)cc1F)C(=O)N1CCC2=NN(CC(F)(F)F)C(=O)[C@]2(Cc2ccccn2)C1 [Compound B, 2-amino-N-[1-(R)-(2,4-difluoro-benzyloxymethyl)-2-oxo-2-(3-oxo-3a-(R)-pyridin-2-ylmethyl-2-(2,2,2-trifluoro-ethyl)-2,3,3a,4,6,7-hexahydro-pyrazolo[4,3-c]pyridin-5-yl)-ethyl]-2-methyl-propionamide] | – | – | – | – | – | significantly inhibited the progression of the weight loss |
